Assay results published in PubChem BioAssay (NCI).
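Test compounds were applied to cells in 96-well plates for 48 hours at 5 doses. Here, GI50 denotes the concentration required for 50% inhibition of growth. TGI: total growth inhibition.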

How the values were obtained:
Assay in all cases: NCI tumour cell line growth inhibition, 48 h
[1] = tested on: 786-0 renal
[2] = tested on: A498 renal
[3] = tested on: A549 NSCLC
[4] = tested on: ACHN renal
[5] = tested on: BT-549 breast
[6] = tested on: CAKI-1 renal
[7] = tested on: CCRF-CEM leukemia
[8] = tested on: COLO 205 colon
[9] = tested on: DU-145 prostate
[10] = tested on: EKVX NSCLC
[11] = tested on: HCC-2998 colon
[12] = tested on: HCT-116 colon
[13] = tested on: HCT-15 colon
[14] = tested on: HL-60(TB) leukemia
[15] = tested on: HOP-62 NSCLC
[16] = tested on: HOP-92 NSCLC
[17] = tested on: HS 578T breast
[18] = tested on: HT29 colon
[19] = tested on: IGROV1 ovarian
[20] = tested on: K-562 leukemia
[21] = tested on: KM12 colon
[22] = tested on: LOX IMVI melanoma
[23] = tested on: M14 melanoma
[24] = tested on: MALME-3M melanoma
[25] = tested on: MCF7 breast
[26] = tested on: MDA-MB-231 breast
[27] = tested on: MDA-MB-435
[28] = tested on: MOLT-4 leukemia
[29] = tested on: NCI-H226 lung
[30] = tested on: NCI-H460 lung
[31] = tested on: NCI-H522 lung
[32] = tested on: NCI/ADR-RES ovarian
[33] = tested on: OVCAR-3 ovarian
[34] = tested on: OVCAR-4 ovarian
[35] = tested on: OVCAR-5 ovarian
[36] = tested on: OVCAR-8 ovarian
[37] = tested on: PC-3 prostate
[38] = tested on: RPMI-8226 leukemia
[39] = tested on: RXF 393 renal
[40] = tested on: SF-268 CNS
[41] = tested on: SF-295 CNS
[42] = tested on: SF-539 CNS
[43] = tested on: SK-MEL-2 melanoma
[44] = tested on: SK-MEL-28 melanoma
[45] = tested on: SK-MEL-5 melanoma
[46] = tested on: SK-OV-3 ovarian
[47] = tested on: SN12C renal
[48] = tested on: SNB-19 CNS
[49] = tested on: SNB-75 CNS
[50] = tested on: SR leukemia
[51] = tested on: SW-620 colon
[52] = tested on: T-47D breast
[53] = tested on: TK-10 renal
[54] = tested on: U251 CNS
[55] = tested on: UACC-257 melanoma
[56] = tested on: UACC-62 melanoma
[57] = tested on: UO-31 renal

Compound: CC(=O)N(O)CCCCCNC(=O)CCC(=O)N(O)CCCCCNC(=O)CCC(=O)N(O)CCCCCN(CCCCCCCCCC[P+](c1ccccc1)(c1ccccc1)c1ccccc1)CCCCCCCCCC[P+](c1ccccc1)(c1ccccc1)c1ccccc1
- GI50 [1]: 7.1 µM
- TGI [1]: 26.6 µM
- GI50 [2]: 18.9 µM
- TGI [2]: 81.2 µM
- GI50 [3]: 3.47 µM
- TGI [3]: > 100 µM
- GI50 [4]: 16.1 µM
- TGI [4]: 69.9 µM
- GI50 [5]: 2.15 µM
- TGI [5]: 9 µM
- GI50 [6]: 10.8 µM
- TGI [6]: 24.4 µM
- GI50 [7]: 2.5 µM
- TGI [7]: 23.4 µM
- GI50 [8]: 1.58 µM
- TGI [8]: 3.55 µM
- GI50 [9]: 5.21 µM
- TGI [9]: 25.4 µM
- GI50 [10]: 1.35 µM
- TGI [10]: 13 µM
- GI50 [11]: 3.45 µM
- TGI [11]: 13.9 µM
- GI50 [12]: 2.93 µM
- TGI [12]: 23.8 µM
- GI50 [13]: 14.6 µM
- TGI [13]: 43.9 µM
- GI50 [14]: 2.04 µM
- TGI [14]: 6.01 µM
- GI50 [15]: 3.46 µM
- TGI [15]: 16.1 µM
- GI50 [16]: 1.49 µM
- TGI [16]: 6.82 µM
- GI50 [17]: 3.77 µM
- TGI [17]: 30.8 µM
- GI50 [18]: 2.84 µM
- TGI [18]: 11.4 µM
- GI50 [19]: 2.83 µM
- TGI [19]: 16.8 µM
- GI50 [20]: 1.47 µM
- TGI [20]: 15.4 µM
- GI50 [21]: 3.43 µM
- TGI [21]: 21.1 µM
- GI50 [22]: 3.21 µM
- TGI [22]: 10.2 µM
- GI50 [23]: 4.11 µM
- TGI [23]: 21.9 µM
- GI50 [24]: 4.11 µM
- TGI [24]: 20.3 µM
- GI50 [25]: 2.29 µM
- TGI [25]: 10.8 µM
- GI50 [26]: 4.13 µM
- TGI [26]: 19.6 µM
- GI50 [27]: 2.76 µM
- TGI [27]: 11.3 µM
- GI50 [28]: 3.52 µM
- TGI [28]: 18.9 µM
- GI50 [29]: 5.02 µM
- TGI [29]: 23.9 µM
- GI50 [30]: 2.38 µM
- TGI [30]: 11.5 µM
- GI50 [31]: 2.52 µM
- TGI [31]: 10.7 µM
- GI50 [32]: 31.3 µM
- TGI [32]: > 100 µM
- GI50 [33]: 4.22 µM
- TGI [33]: 23.2 µM
- GI50 [34]: 2.73 µM
- TGI [34]: 17.5 µM
- GI50 [35]: 3.46 µM
- TGI [35]: 15.5 µM
- GI50 [36]: 3.07 µM
- TGI [36]: 14.8 µM
- GI50 [37]: 2.95 µM
- TGI [37]: 13.4 µM
- GI50 [38]: 2.12 µM
- TGI [38]: 9.63 µM
- GI50 [39]: 3.3 µM
- TGI [39]: 14.5 µM
- GI50 [40]: 4.6 µM
- TGI [40]: 26.4 µM
- GI50 [41]: 2.99 µM
- TGI [41]: 14.1 µM
- GI50 [42]: 2.8 µM
- TGI [42]: 10.4 µM
- GI50 [43]: 2.61 µM
- TGI [43]: 7.86 µM
- GI50 [44]: 3.62 µM
- TGI [44]: 18.3 µM
- GI50 [45]: 3.65 µM
- TGI [45]: 15.8 µM
- GI50 [46]: 2.3 µM
- TGI [46]: 6.15 µM
- GI50 [47]: 2.88 µM
- TGI [47]: 11.1 µM
- GI50 [48]: 3.09 µM
- TGI [48]: 14.1 µM
- GI50 [49]: 2.69 µM
- TGI [49]: 11.4 µM
- GI50 [50]: 2.71 µM
- TGI [50]: 11.2 µM
- GI50 [51]: 4.18 µM
- TGI [51]: 16.5 µM
- GI50 [52]: 1.78 µM
- TGI [52]: 8.85 µM
- GI50 [53]: 9 µM
- TGI [53]: 34.2 µM
- GI50 [54]: 2 µM
- TGI [54]: 13 µM
- GI50 [55]: 2.66 µM
- TGI [55]: 10 µM
- GI50 [56]: 3.35 µM
- TGI [56]: 15.3 µM
- GI50 [57]: 16 µM
- TGI [57]: > 100 µM
